Measurements as given in the supplement of paper PMC10307832.

Key:
Experiment in all cases: relative viability (nuclei count vs DMSO), 5 days (fraction); higher = more cells survive
[1] = compound: C1CSC2=C(C(=O)N1)SC3=C2C=C(C=C3)O [kb NB 142-70] + CC(C)C[C@H](NC(=O)[C@H](Cc1ccccc1)NC(=O)c1cnccn1)B(O)O [Bortezomib] (partner 0.002 µM)
Procedure, shortened: (§1)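 Five library-drug doses in √10 steps were combined with a fixed anchor-drug dose, or a single drug was given alone, by pin tool to lung cancer cell lines in 1536-well plates the day after seeding. Nuclei were stained and counted after 5 days. Relative viability is the nuclei count in treated wells over that in vehicle wells, taken as the median of duplicate plates.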

[2] = compound: NCC(=O)Nc1ccc(-n2nc(C(F)(F)F)cc2-c2ccc3c(ccc4ccccc43)c2)cc1 + CCNC(=O)c1noc(-c2cc(C(C)C)c(O)cc2O)c1-c1ccc(CN2CCOCC2)cc1 [Luminespib] (partner 0.01 µM)
Procedure, shortened: as §1

[3] = compound: NCC(=O)Nc1ccc(-n2nc(C(F)(F)F)cc2-c2ccc3c(ccc4ccccc43)c2)cc1 + C[C@]1(O)C[C@@H](c2nc(-c3ccc4ccc(-c5ccccc5)nc4c3)c3c(N)nccn32)C1 [Linsitinib] (partner 1 µM)
Procedure, shortened: as §1

[4] = compound: NCC(=O)Nc1ccc(-n2nc(C(F)(F)F)cc2-c2ccc3c(ccc4ccccc43)c2)cc1 + Cc1nc(Nc2ncc(C(=O)Nc3c(C)cccc3Cl)s2)cc(N2CCN(CCO)CC2)n1 [Dasatinib] (partner 0.075 µM)
Procedure, shortened: as §1

| Cell Line | relative viability ([1]; first compound 0.1 µM) | relative viability ([1]; first compound 1 µM) | relative viability ([1]; first compound 3.162 µM) | relative viability ([2]; first compound 0.02 µM) | relative viability ([2]; first compound 0.06325 µM) | relative viability ([2]; first compound 0.2 µM) | relative viability ([2]; first compound 0.6325 µM) | relative viability ([2]; first compound 2 µM) | relative viability ([3]; first compound 0.02 µM) | relative viability ([3]; first compound 0.06325 µM) | relative viability ([3]; first compound 0.2 µM) | relative viability ([3]; first compound 0.6325 µM) | relative viability ([3]; first compound 2 µM) | relative viability ([4]; first compound 0.02 µM) | relative viability ([4]; first compound 0.06325 µM) | relative viability ([4]; first compound 0.2 µM) | relative viability ([4]; first compound 0.6325 µM) | relative viability ([4]; first compound 2 µM) |
| --- | --- | --- | --- | --- | --- | --- | --- | --- | --- | --- | --- | --- | --- | --- | --- | --- | --- | --- |
| NCI-H322M | 1.2 | 1.25 | 1.3 | 0.919 | 0.946 | 0.895 | 0.917 | 0.855 | 1.04 | 0.916 | 0.924 | 0.884 | 0.976 | 0.268 | 0.266 | 0.251 | 0.271 | 0.261 |
| NCI-H441 | 0.323 | 0.793 | 0.307 | 0.334 | 0.391 | 0.347 | 0.296 | 0.397 | 0.634 | 0.486 | 0.509 | 0.657 | 0.668 | 0.444 | 0.665 | 0.729 | 0.548 | 0.681 |
| NCI-H460 | 1.05 | 1.08 | 0.608 | 0.032 | 0.0402 | 0.0319 | 0.0282 | 0.0345 | 0.823 | 0.757 | 0.855 | 0.717 | 0.738 | 0.425 | 0.597 | 0.543 | 0.494 | 0.547 |
| NCI-H520 | 0.52 | 0.541 | 0.277 | 0.193 | 0.179 | 0.198 | 0.239 | 0.229 | 1.02 | 0.904 | 1.07 | 0.91 | 1.13 | 0.207 | 0.206 | 0.177 | 0.213 | 0.212 |
| NCI-H596 | 1 | 1.07 | 0.954 | 1.14 | 1.02 | 1.06 | 0.99 | 0.978 | 1.05 | 1.06 | 0.989 | 1.02 | 1.04 | 0.626 | 0.66 | 0.591 | 0.6 | 0.652 |
| NCI-H647 | 0.987 | 0.773 | 1.06 | 0.26 | 0.151 | 0.146 | 0.181 | 0.252 | 1.23 | 1.25 | 1.12 | 1.31 | 0.915 | 0.205 | 0.167 | 0.227 | 0.193 | 0.208 |
| NCI-H650 | 0.845 | 0.719 | 0.561 | 0.725 | 0.878 | 0.867 | 0.734 | 0.973 | 0.638 | 1.01 | 1.02 | 0.862 | 1.08 | 0.4 | 0.479 | 0.434 | 0.377 | 0.459 |
| NCI-H661 | 0.808 | 0.805 | 0.802 | 0.932 | 0.907 | 0.899 | 0.925 | 0.906 | 0.573 | 0.584 | 0.582 | 0.496 | 0.566 | 0.866 | 1.01 | 0.884 | 0.943 | 0.925 |
| NCI-H727 | 0.897 | 1.1 | 1.02 | 0.325 | 0.352 | 0.322 | 0.32 | 0.401 | 0.297 | 0.275 | 0.377 | 0.352 | 0.493 | 0.375 | 0.365 | 0.347 | 0.467 | 0.345 |
| NCI-H838 | 0.83 | 0.777 | 0.877 | 0.328 | 0.31 | 0.372 | 0.429 | 0.382 | 1.03 | 1.01 | 1.1 | 0.925 | 0.881 | 0.233 | 0.305 | 0.273 | 0.302 | 0.285 |
| NCI-H1355 | 1.24 | 1.16 | 1.22 | 0.668 | 0.765 | 0.72 | 0.791 | 0.752 | 0.769 | 0.855 | 0.849 | 0.867 | 0.82 | 0.664 | 0.813 | 0.723 | 0.754 | 0.756 |
| NCI-H1437 | 0.485 | 0.492 | 0.482 | 1.11 | 0.991 | 1.13 | 1.12 | 1.05 | 0.944 | 1.05 | 1.07 | 1.1 | 1.02 | 0.309 | 0.359 | 0.265 | 0.506 | 0.526 |
| NCI-H1563 | 0.921 | 0.84 | 0.956 | 0.557 | 0.523 | 0.588 | 0.526 | 0.554 | 1.33 | 1.22 | 1.2 | 1.19 | 1.28 | 0.47 | 0.479 | 0.477 | 0.469 | 0.525 |
| NCI-H1651 | 0.966 | 0.863 | 0.857 | 0.8 | 0.965 | 0.872 | 0.81 | 0.861 | 0.945 | 1.05 | 0.963 | 1.01 | 1.01 | 0.319 | 0.447 | 0.346 | 0.494 | 0.462 |
| NCI-H1666 | 0.903 | 0.713 | 0.36 | 0.982 | 1.06 | 0.925 | 1.07 | 0.93 | 0.703 | 0.993 | 0.861 | 0.912 | 0.844 | 0.814 | 0.793 | 0.881 | 0.814 | 0.744 |
| NCI-H1734 | 0.889 | 0.867 | 0.49 | 0.201 | 0.213 | 0.181 | 0.24 | 0.187 | 0.916 | 0.856 | 0.988 | 0.823 | 0.925 | 0.468 | 0.472 | 0.513 | 0.466 | 0.438 |
| NCI-H1755 | 1.02 | 0.98 | 1 | 0.449 | 0.621 | 0.305 | 0.426 | 0.541 | 1.08 | 1.01 | 0.98 | 0.991 | 0.995 | 0.435 | 0.44 | 0.431 | 0.45 | 0.414 |
